Reference: paper PMC3830479 (Journal of Experimental Botany, 2013)

Legend:
[1] = target: T1, OsG6PDH1 (Oryza sativa, UniProt Q0DZS9); experiment: inhibition of G6PDH activity; assay type: biochemical; conditions: feedback (product) inhibition
T1 construct: gene Os02g0600400; coding region in pET32 (N-terminal fusion, His-tag), E. coli SoluBL21, HisTrap purified
T1 sequence (Q0DZS9 1-517): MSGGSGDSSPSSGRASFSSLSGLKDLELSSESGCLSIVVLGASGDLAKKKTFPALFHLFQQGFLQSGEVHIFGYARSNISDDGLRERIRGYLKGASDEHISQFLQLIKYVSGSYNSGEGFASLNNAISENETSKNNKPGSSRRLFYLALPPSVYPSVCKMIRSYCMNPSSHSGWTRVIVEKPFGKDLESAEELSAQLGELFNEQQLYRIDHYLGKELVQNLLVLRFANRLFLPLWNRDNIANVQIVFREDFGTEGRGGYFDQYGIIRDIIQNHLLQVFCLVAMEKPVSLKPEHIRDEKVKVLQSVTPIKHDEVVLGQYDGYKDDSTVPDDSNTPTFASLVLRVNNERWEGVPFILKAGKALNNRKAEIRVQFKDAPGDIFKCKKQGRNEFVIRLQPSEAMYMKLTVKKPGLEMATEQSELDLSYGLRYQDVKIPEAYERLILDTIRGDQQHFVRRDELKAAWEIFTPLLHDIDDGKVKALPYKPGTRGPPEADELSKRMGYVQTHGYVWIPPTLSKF

[2] = target: T2, OsG6PDH2 (Oryza sativa, UniProt Q7X7I6); experiment: inhibition of G6PDH activity; assay type: biochemical; conditions: feedback (product) inhibition
T2 construct: gene Os04g0485300; coding region in pET32 (N-terminal fusion, His-tag), E. coli SoluBL21, HisTrap purified
T2 sequence (Q7X7I6 1-505): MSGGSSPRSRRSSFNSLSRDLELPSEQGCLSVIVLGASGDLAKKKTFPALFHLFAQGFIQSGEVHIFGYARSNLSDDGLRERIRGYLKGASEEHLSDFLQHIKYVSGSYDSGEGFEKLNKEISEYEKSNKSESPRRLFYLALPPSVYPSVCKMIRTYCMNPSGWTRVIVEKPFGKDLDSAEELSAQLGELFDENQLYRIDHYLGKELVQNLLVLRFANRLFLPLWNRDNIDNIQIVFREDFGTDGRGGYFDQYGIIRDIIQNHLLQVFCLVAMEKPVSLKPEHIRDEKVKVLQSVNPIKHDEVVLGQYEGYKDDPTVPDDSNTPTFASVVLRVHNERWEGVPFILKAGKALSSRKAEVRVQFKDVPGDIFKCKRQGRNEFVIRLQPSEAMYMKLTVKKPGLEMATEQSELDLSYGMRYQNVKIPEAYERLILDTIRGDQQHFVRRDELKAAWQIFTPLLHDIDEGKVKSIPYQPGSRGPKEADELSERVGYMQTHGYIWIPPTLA

[3] = target: T1, OsG6PDH1; parameters: Recombinant G6PDH spectrophotometric assay at 340 nm with G6P, NADP+ reduction, 25 °C, pH 7.6; conditions: feedback inhibition, G6P/NADP+ assay; inhibitor; read-out: Ki NADPH
Method: (§1) The activity of recombinant rice G6PDHs was measured spectrophotometrically (340nm) at 25 °C by detecting NADP reduction via G6PDH reaction, which is coupled with G6P production, as described by [Wakao and Benning (2005)]. Reaction mixtures with 0.01–10mM G6P contained 0.2M TRIS (pH 7.6), NADP^+ (0.01–10mM), and MgCl2 (5mM). DTT (10mM) was incubated with the reaction mixture for 1h to test its activity. The DNA fragment containing the coding region of OsHXK5, OsHXK6, AlsK, OsG6PDH1, or OsG6PDH2 was subcloned in-frame into the pET32 vector (Novagen), and overexpressed in E. coli SoluBL21 (Genlantis, San Diego, CA, USA) according to the manufacturer’s instructions. The recombinant proteins were purified using a HisTrap HP column (GE Healthcare, Wauwatosa, WI, USA) as per the manufacturer’s instructions and dialysed against 0.2M TRIS-HCl buffer (pH 7.6) containing MgCl2 (5mM). Recombinant proteins of OsG6PDH1 and OsG6PDH2 had enzymatic activity with G6P and NADP^+, and OsG6PDH1 had higher activity based on k cat/K m values (Table 2). […] Neither enzyme used A6P as a substrate (Supplementary Table S3).

[4] = target: T2, OsG6PDH2; parameters: Recombinant G6PDH spectrophotometric assay at 340 nm with G6P, NADP+ reduction, 25 °C, pH 7.6; conditions: feedback inhibition, G6P/NADP+ assay; inhibitor; read-out: Ki NADPH
Method: as §1

NC(=O)C1=CN([C@@H]2O[C@H](COP(=O)(O)OP(=O)(O)OC[C@H]3O[C@@H](n4cnc5c(N)ncnc54)[C@H](OP(=O)(O)O)[C@@H]3O)[C@@H](O)[C@H]2O)C=CC1 [NADPH]
inhibition of G6PDH activity [1]: OsG6PDH1 and OsG6PDH2 suffered tight feedback inhibition by NADPH
inhibition of G6PDH activity [2]: OsG6PDH1 and OsG6PDH2 suffered tight feedback inhibition by NADPH
Ki [3]: 41.5 µM
Ki [4]: 30 µM
